Reference: article PMC9241695, “Selective Metal Chelation by a Thiosemicarbazone Derivative Interferes with Mitochondrial Respiration and Ribosome Biogenesis in Candida albicans” (Microbiology Spectrum, 2022)
In brackets after ≈: the same amount, converted by molar mass. Like-named read-outs stand apart in the source and are kept apart here.

Experiments:
C. albicans SC5314 cells = test: Intracellular free iron levels using FeRhoNox-1; assay type: cell-based, Candida albicans; conditions: 0.5 μg/mL, 6 h, compared with untreated cells
Experimental: FeRhoNox-1 is a commercially available fluorescent probe that specifically binds Fe^2+ and is used to measure intracellular Fe^2 + content. C. albicans SC5314 cells cultured overnight were diluted to roughly 1 × 10^6 cells/mL in RPMI 1640 medium and challenged with various doses of 19ak for 6 h. Next, the cells were fixed with 4% paraformaldehyde for 1 h. After washing three times with PBS, the cells were stained with 5 μM FeRhoNox-1 for 30 min and analyzed by flow cytometry (Becton, Dickinson, CA, USA). Mammalian cells culture is according to the method described in Cytotoxicity testing which was described in Supplemental material in detail. After 12 h of treatment with different concentrations of 19ak, the supernatant was discarded and washed three times with PBS. Cells were collected after staining with FeRhoNox-1 for 30 min in the dark, and the fluorescence intensity of stained cells was analyzed by flow cytometry.

[1] = system: C. albicans CAF2-1, zap1Δ/Δ, zap1Δ/Δ+ pZAP1; test: Growth of zap1 mutant, complemented and wild-type strains under 19ak; assay type: cell-based, Candida albicans
Experimental: FIG 6 Effect of 19ak on ribosome biogenesis in C. albicans. (A to C) The wild strain CAF2-1, the mutant strain zap1Δ/Δ and its complemented strain zap1Δ/Δ+ pZAP1 were adjusted to 1 × 10^5 cells/mL in RPMI 1640 medium and treated with 0.25 or 0.5 μg/mL 19ak for 15 h at 30°C. Cell growth was monitored by detecting the optical density at 600 nm in a microplate reader. (A) Cells that were not treated with 19ak as a control. (B) Cells treated with 0.25 μg/mL 19ak. (C) Cells treated with 0.5 μg/mL 19ak. Each point represents the mean of three replicates. The OD600 values at the final detection point were used to analyze significant differences. (D) C. albicans zap1Δ/Δ and its complemented strain zap1Δ/Δ + pZAP1 were treated with 0.5 μg/mL 19ak for 6 h at 30°C. The transcription levels of several genes associated with ribosomal biosynthesis were determined by qPCR. The bars represent means ± SD from three independent experiments. *, P < 0.05; **, P < 0.01; ***, P < 0.001. ns, nonsignificance. (E) qPCR analysis of the expression of genes associated with iron and zinc homeostasis after TPEN treatment. C. albicans SC5314 was cultured in RPMI 1640 medium and treated with 0.05 μg/mL or 0.2 μg/mL TPEN for 6 h at 30°C for qPCR analysis.

C. albicans G5 = test: microbe, parasite or virus in culture; assay type: cell-based; conditions: Candida albicans, G5
Source text: (§1) Compound library. The thiosemicarbazone derivatives Triapine and COTI-2 were purchased from Med Chem Express (MCE). The other 87 thiosemicarbazones used in this study were previously synthesized by our collaborators (1, 2). Their structures are shown in Table 1 and Table S1 to help the reader clearly understand the relationship between structure and activity.
(§2) Strains and culture conditions. Clinically derived C. albicans isolates, including G5, F5, and Gu5, were kindly provided by Professor Joachim Morschhäuser of the University of Würzburg. Other clinical C. albicans isolates were kindly donated by Professor Qingguo Qi of Shandong University and Qianfoshan Hospital of Shandong Province Other Candida strains were obtained from Jinan Central Hospital.
(§3) The zap1 mutant and its complemented strain were kindly provided by Professor Aaron P. Mitchell of Carnegie Mellon University (3). The C. neoformans strains used in this study was kindly donated by Professor Guojian Liao of Southwest University and A. fumigatus strain used in this study was provided by Professor Ling Lu of Nanjing Normal University. Before in vitro and in vivo experiments, all C. albicans strains were grown on YPD agar plates. After culturing at 30°C for 24 h, colonies of each strain were cultured in liquid YPD medium at 30°C with continuous shaking […]
(§4) Antifungal susceptibility testing. To determine in vitro antifungal activities, the microbroth dilution method was carried out in RPMI1640 medium according to the guidelines of the Clinical and Laboratory Standards Institute (4, 5). The initial concentration in RPMI1640 medium was 1 × 10^3 CFU/mL for the C. albicans and C. neoformans suspensions but 1 × 10^4 CFU/mL for A. fumigatus. The range of final drug concentrations was 0.0156–64 μg/mL. The plates were incubated at35°C for 24 […]
(§5) h (for C. albicans, C. krusei, C. tropicalis, C. parapsilosis) or 48 h (for C. neoformans, A. fumigatus). The MIC was determined based on visible growth inhibition compared with the control. All experiments were performed in duplicate. […]

C. albicans Gu5 = test: microbe, parasite or virus in culture; assay type: cell-based; conditions: Candida albicans, GU5
Source text: as §1, §2, §3, §4, §5

C. albicans SC5314 = test: Rescue effect of exogenous metal ions on MIC of 19ak; assay type: cell-based; conditions: Candida albicans
Experimental: as §5
Rescue effect of exogenous metal ions on fungal growth inhibition by 19ak.
Since the effects of thiosemicarbazone may be due to binding of intracellular metal ions, we investigated the impact of adding metal ions to the medium on the inhibitory effect of 19ak by performing antifungal susceptibility testing as described above in the presence of 50 μM, 100 μM, and 200 μM ZnSO4, FeSO4, and FeCl3. […]

## C/C(=N\NC(=S)N(C)C)c1ccccn1 [Compound 19ak]
C. albicans SC5314 cells
  Intracellular labile ferrous ions (FeRhoNox-1): obvious drop
[1]; 100 μM Zn^2+ added
  Activity against CAF2-1, zap1Δ/Δ and complemented strain with exogenous Zn^2+: lost the activities
[1]; 0.25 or 0.5 μg/mL, 15 h, 30°C
  Growth of zap1 mutant versus complemented strain: more severe growth defects
C. albicans G5
  MIC80: 1 µg/mL (≈ 4.5 µM)
C. albicans Gu5
  MIC80: 0.25 µg/mL (≈ 1.12 µM)
C. albicans SC5314; SC5314, + 50 μM Fe^2+ (FeSO4), read-out: MIC against C. albicans SC5314
  MIC: 1 µg/mL
C. albicans SC5314; SC5314, + 50 μM Fe^3+ (FeCl3), read-out: MIC against C. albicans SC5314
  MIC: 0.25 µg/mL
C. albicans SC5314; SC5314, + 50 μM Zn^2+ (ZnSO4), read-out: MIC against C. albicans SC5314
  MIC: 4 µg/mL
C. albicans SC5314; SC5314, + 100 μM Fe^2+ (FeSO4), read-out: MIC against C. albicans SC5314
  MIC: 1 µg/mL
C. albicans SC5314; SC5314, + 100 μM Fe^3+ (FeCl3), read-out: MIC against C. albicans SC5314
  MIC: 0.25 µg/mL
C. albicans SC5314; SC5314, + 100 μM Zn^2+ (ZnSO4), read-out: MIC against C. albicans SC5314
  MIC: 4 µg/mL
C. albicans SC5314; SC5314, + 200 μM Fe^2+ (FeSO4), read-out: MIC against C. albicans SC5314
  MIC: 1 µg/mL
C. albicans SC5314; SC5314, + 200 μM Fe^3+ (FeCl3), read-out: MIC against C. albicans SC5314
  MIC: 0.5 µg/mL
C. albicans SC5314; SC5314, + 200 μM Zn^2+ (ZnSO4), read-out: MIC against C. albicans SC5314
  MIC: 4 µg/mL
C. albicans SC5314; SC5314, read-out: MIC against C. albicans SC5314
  MIC: 0.125 µg/mL
